The assay addresses T1, human α4β2 (Homo sapiens, UniProt P17787+P43681).
T1 construct: expressed in transfected cells
Nature of the assay: Calcium flux assay (FLIPR) in HEK 293 cells expressing NNR subtype; potentiation of submaximal agonist response. Type of assay: cell-based. The note with it: α4β2 PAM; response to submaximal agonist (EC20-30%) such as nicotine. From the text: One manner to characterize α4β2 PAM activity is by characterization in clonal cell lines (for example, human embryonic kidney 293 cells) expressing the human neuronal nicotinic acetylcholine receptor subtype α4β2, particularly by use of Fluorescent Image Plate Reader technology. Effects on calcium flux or membrane potential changes can be assessed. Such assays have been reported and further details for carrying out, the assays can be obtained in International Publication No. WO 2006/114400. Another method to identify and characterize allosteric modulator activity is by expressing the α4β2 subunits in Xenopus oocytes, and by measuring electrophysiological effects on ligand-evoked current responses as previously described in Curtis, L., et al., Molecular Pharmacology, 61: 127-135, 2002.
To determine the effectiveness of representative compounds of this invention as ligands for α4β2 PAM activity, the compounds of the invention can be evaluated according to the Calcium Flux Assay described below.
Calcium Flux Assays Using Cells Expressing NNR Subtypes
Human embryonic kidney (HEK) 293 cells stably expressing human α4β2 or (3β4 combinations are grown to confluency in 162 cm^2 tissue culture flasks in DMEM media supplemented with 10% FBS and 25 μg/mL zeocin and 200 μg/mL hygromycin B. Cells expressing rat or ferret subunits may also be used. For assessing α3* or α7* selectivity, IMR-32 cells may also be used. IMR-32 neuroblastoma cells (ATCC) are grown to confluency in 162 cm^2 tissue culture flasks in minimum essential media supplemented with 10% FBS and 1 mM sodium pyruvate, 1% non-essential amino acids and 1% antibiotic-antimycotic. For the calcium flux assay, c cells are then dissociated using cell dissociation buffer and 100-150 μL per well of 3.5×10^5 cells/mL cell suspension (˜50,000-100,000 cells/well) was plated into 96-well black plates (poly-D-lysine precoated) with clear bottom and maintained for 24-48 hours in a tissue culture incubator at 37° C. under an atmosphere of 5% CO2: 95% air. Other clonal cell lines or primary cell cultures that express endogenous α4* nicotinic receptors may also be used in this assay. Calcium flux was measured using calcium-3 assay kit (Molecular Devices, Sunnyvale, Calif.) or fluo-4 (Invitrogen). A stock solution of the dye was prepared by dissolving each vial supplied by the vendor in Hank's balanced-salt solution buffer (HBSS) or 150 mM NMDG, 20 mM calcium chloride containing 10 mM HEPES. The stock-solution was diluted 1:20 using a the same buffer before use. The growth media was removed from the cells. The cells were loaded with 100 μL of the dye per well and incubated at room temperature for up to one hour for HEK 293 clonal stable cell lines or 30 minutes-45 minutes at 37° C. for IMR-32 cells. Fluorescence measurements were read simultaneously from all the wells by a Fluorometic Imaging Plate Reader (FLIPR) at an excitation wavelength of 480 nm and an emission wavelength of 520 nm. Baseline fluorescence was measured for the first 6 seconds at which 3× concentrations of modulator/test compounds were added to the cell plate at 50 μL and incubated for five minutes. The fluorescence intensity was captured every second for the first 1 minute followed by every 5 seconds for an additional 4 minutes. This procedure was followed by 50 μL of 4× concentration of agonist and readings were taken for a period of 3-5 minutes as described above.
The ability of test compounds to positively modulate the response (i.e., increase the response) induced by a submaximal concentration of agonist (EC20-30%) such as nicotine is measured. Potentiation is measured based on peak fluorescence responses. by screening compounds at fixed concentrations or in a concentration-response manner to derive, EC50 values. The concentration dependence of changes in fluorescence responses is fitted by nonlinear regression analysis (GraphPad Prism, San Diego, Calif.) to obtain EC50 values. […]

SMILES strings stand for the structures.

T1 sequence (P43681 29-627 limits assumed): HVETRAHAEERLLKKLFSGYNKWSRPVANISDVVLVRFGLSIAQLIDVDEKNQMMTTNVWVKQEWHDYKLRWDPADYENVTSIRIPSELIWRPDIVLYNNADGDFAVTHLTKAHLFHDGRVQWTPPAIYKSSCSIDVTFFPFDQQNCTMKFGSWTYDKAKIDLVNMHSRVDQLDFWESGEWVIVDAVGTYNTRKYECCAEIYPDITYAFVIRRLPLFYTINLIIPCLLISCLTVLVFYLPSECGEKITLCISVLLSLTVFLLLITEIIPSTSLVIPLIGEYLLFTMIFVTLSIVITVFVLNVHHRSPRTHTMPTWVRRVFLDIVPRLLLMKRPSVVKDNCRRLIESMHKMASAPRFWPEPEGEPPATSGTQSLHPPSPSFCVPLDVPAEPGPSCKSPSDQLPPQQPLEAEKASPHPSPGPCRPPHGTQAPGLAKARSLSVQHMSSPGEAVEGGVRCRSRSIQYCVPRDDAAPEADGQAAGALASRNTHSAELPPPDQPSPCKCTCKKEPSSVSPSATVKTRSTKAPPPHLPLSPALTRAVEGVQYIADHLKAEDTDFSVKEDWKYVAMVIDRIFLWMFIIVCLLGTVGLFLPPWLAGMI
T1 sequence (P17787 26-502): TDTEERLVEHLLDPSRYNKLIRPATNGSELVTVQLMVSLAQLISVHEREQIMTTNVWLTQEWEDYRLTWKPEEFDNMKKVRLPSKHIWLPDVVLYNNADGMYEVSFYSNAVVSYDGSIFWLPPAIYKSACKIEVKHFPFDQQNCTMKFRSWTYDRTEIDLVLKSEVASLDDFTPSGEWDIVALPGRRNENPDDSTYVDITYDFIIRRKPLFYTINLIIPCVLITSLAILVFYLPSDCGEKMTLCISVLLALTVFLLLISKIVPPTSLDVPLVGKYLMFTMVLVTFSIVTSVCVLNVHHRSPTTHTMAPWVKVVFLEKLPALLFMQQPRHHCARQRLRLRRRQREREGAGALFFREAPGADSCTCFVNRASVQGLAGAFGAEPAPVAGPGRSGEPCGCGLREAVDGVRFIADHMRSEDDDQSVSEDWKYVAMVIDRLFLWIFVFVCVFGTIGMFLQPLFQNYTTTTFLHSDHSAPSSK

Take `Cc1ccc(C)c2c(C)c(C(=O)N[C@@H]3CCNC3)[nH]c12` [Example 1, (R)-3,4,7-trimethyl-N-(pyrrolidin-3-yl)-1H-indole-2-carboxamide]: the “Activity (allostertc effects—potentiation of fluorescence responses)” value (“Activity” for short) is on record as “a (“a” denotes active compounds (>100%))”.
In the case of `CC(C)(C)c1ccc2cc(C(=O)N[C@@H]3CCNC3)[nH]c2c1` [Example 10, (R)-6-tert-butyl-N-(pyrrolidin-3-yl)-1H-indole-2-carboxamide], the “Activity” value is “a (“a” denotes active compounds (>100%))”.
The result for `O=C(N[C@@H]1CCNC1)c1cc2ccc(-c3ccccc3)cc2[nH]1` [Example 13, (R)-6-phenyl-N-(pyrrolidin-3-yl)-1H-indole-2-carboxamide] reads “a (“a” denotes active compounds (>100%))”.
As for `CN1CC[C@@H](NC(=O)c2cc3cc(Cl)ccc3[nH]2)C1` [Example 31], the “Activity” value is reported as “a (“a” denotes active compounds (>100%))”.
Regarding `CN1CC[C@H](NC(=O)c2cc3c(Cl)cc(Cl)cc3[nH]2)C1` [Example 40, (S)-4,6-dichloro-N-(1-methylpyrrolidin-3-yl)-1H-indole-2-carboxamide], the “Activity” value is reported as “a (“a” denotes active compounds (>100%))”.
The value for `Cc1ccc(C)c2c(C)c(C(=O)N[C@@H]3CCCNC3)[nH]c12` [Example 108, (R)-3,4,7-trimethyl-N-(piperidin-3-yl)-1H-indole-2-carboxamide] was “a (“a” denotes active compounds (>100%))”; that for `Cc1ccc(C)c2c(C)c(C(=O)N[C@@H]3CCCN(C)C3)[nH]c12.Cc1ccc(S(=O)(=O)O)cc1` [Example 109, (R)-3,4,7-trimethyl-N-(1-methylpiperidin-3-yl)-1H-indole-2-carboxamide tosylate] was “a (“a” denotes active compounds (>100%))”; that for `O=C(N[C@@H]1CCCNC1)c1cc2c(Cl)cc(Cl)cc2[nH]1` [Example 114, (R)-4,6-dichloro-N-(piperidin-3-yl)-1H-indole-2-carboxamide] was “a (“a” denotes active compounds (>100%))”.

Source of the values: patent US20100035862A1, “NOVEL AZA-CYCLIC INDOLE-2-CARBOXAMIDES AND METHODS OF USE THEREOF” (ABBOTT LABORATORIES, priority 2008, published 2010).
